According to ChEMBL document CHEMBL1122602, “2-Acetylpyridine thiosemicarbazones. 8. Derivatives of 1-acetylisoquinoline as potential antimalarial agents” (1984):

What was measured:
Assay type in all cases: functional
Mus musculus [1] = experiment: Antimalarial activity was assessed against Plasmodium berghei in mice (Mus musculus). Increase in mean survival time in days was reported at 160 mg/kg dosage of the compound.
Mus musculus [2] = experiment: Antimalarial activity was assessed against Plasmodium berghei in mice (Mus musculus). Increase in mean survival time in days was reported at 320 mg/kg dosage of the compound.
Mus musculus [3] = experiment: Antimalarial activity was assessed against Plasmodium berghei in mice (Mus musculus). Increase in mean survival time in days was reported, at 80 mg/kg dosage of the compound.
Mus musculus [4] = experiment: Antimalarial activity was assessed against Plasmodium berghei in mice (Mus musculus) at 640 mg/kg dosage of the compound; Cure
Mus musculus [5] = experiment: Increase in mean survival time in mice inoculated with Plasmodium berghei days was reported following 40 mg/kg.
Mus musculus [6] = experiment: Antimalarial activity was assessed against Plasmodium berghei in mice (Mus musculus) at 160 mg/kg dosage of the compound; Cure
Mus musculus [7] = experiment: Antimalarial activity was assessed against Plasmodium berghei in mice (Mus musculus) at 80 mg/kg dosage of the compound; Cure
Mus musculus [8] = experiment: Antimalarial activity was assessed against Plasmodium berghei in mice (Mus musculus) at 320 mg/kg dosage of the compound; Cure
Mus musculus [9] = experiment: Antimalarial activity was assessed against Plasmodium berghei in mice (Mus musculus) at 40 mg/kg dosage of the compound; Cure
Mus musculus [10] = experiment: Antimalarial activity was assessed against Plasmodium berghei in mice (Mus musculus). Increase in mean survival time in days was reported at 640 mg/kg dosage of the compound.
Mus musculus [11] = experiment: Antimalarial mice (Mus musculus) at 320 mg/kg dosage of the compound; Cure

Compound | Mean survival time (Mus musculus [1]) [days] | Mean survival time (Mus musculus [2]) [days] | Increase in mean survival time (Mus musculus [3]) [days] | No. of cures (Mus musculus [4]) | Increase in mean survival time (Mus musculus [5]) [days] | No. of cures (Mus musculus [6]) [count] | No. of cures (Mus musculus [7]) | No. of cures (Mus musculus [8]) [count] | No. of cures (Mus musculus [9]) [count] | Mean survival time (Mus musculus [10]) [days] | No. of cures (Mus musculus [11]) [count]
CC(N/N=C(\S)N1CCN(c2ccccn2)CC1)c1nccc2ccccc12 (stereo not given) | 6.6 | 7.7 | 2.7 | 3 | 1.6 |  |  |  |  |  | 
CC(N/N=C(\S)N1CC2CCC(CC2)C1)c1nccc2ccccc12 (stereo not given) |  |  |  | 3 | 9.7 | 5 | 1 count | 4 |  |  | 
CC(N/N=C(\S)N(C)C1CCCCC1)c1nccc2ccccc12 (stereo not given) |  |  |  | 1 |  | 2 | 3 count | 1 | 2 |  | 
C/C(=N\N=C(/S)N1CCCCCC1)c1nccc2ccccc12 |  |  | 6.9 | 1 | 7.8 | 1 |  | 2 |  |  | 
CC(N/N=C(\S)N(C)C)c1nccc2ccccc12 (stereo not given) |  |  |  |  | 6.2 | 2 |  |  |  |  | 
CC1CN(/C(S)=N/NC(C)c2nccc3ccccc23)CC(C)O1 (stereo not given) |  |  | 5.7 | 2 | 5.9 | 2 |  | 3 |  |  | 
CC(N/N=C(\S)N1CCCC1)c1nccc2ccccc12 (stereo not given) |  |  | 7.1 | 1 | 5.1 | 3 |  | 3 |  |  | 
C/C(=N\N=C(/S)N1CC(C)OC(C)C1)c1nccc2ccccc12 (stereo not given) |  |  | 8.6 | 1 | 3.5 | 3 |  | 3 |  |  | 
C/C(=N\N=C(/S)N1CCCC1)c1nccc2ccccc12 |  |  | 2 |  | 3.5 | 2 |  | 2 |  |  | 
C/C(=N\N=C(/S)N(C)C)c1nccc2ccccc12 | 9.2 |  |  |  | 7.3 |  | 1 |  |  |  | 
C/C(=N\N=C(/S)N1CCC(C)CC1)c1nccc2ccccc12 |  |  |  |  | 1 | 2 | 1 count |  |  |  | 
C/C(=N\N=C(/S)N(C)C1CCCCC1)c1nccc2ccccc12 |  |  | 7.9 |  | 9.5 | 3 |  | 3 |  |  | 
CC1CCN(/C(S)=N/NC(C)c2nccc3ccccc23)CC1 (stereo not given) |  |  | 8.9 |  | 7.6 | 3 |  |  |  |  | 
C/C(=N\N=C(/S)N1CCC(c2ccccc2)CC1)c1nccc2ccccc12 |  |  | 5.7 | 4 | 2.7 | 1 |  | 1 |  |  | 
C/C(=N\N=C(/S)NCc1ccccc1)c1nccc2ccccc12 | 0.9 |  |  |  | 0.1 |  |  |  |  | 0.5 | 
CC(N/N=C(\S)NCc1ccccc1)c1nccc2ccccc12 (stereo not given) | 0.9 |  |  |  | 0.3 |  |  |  |  | 0.1 | 
C/C(=N\N=C(/S)N1CC2CCC(CC2)C1)c1nccc2ccccc12 |  |  |  | 5 |  | 5 | 3 count | 5 | 2 |  | 
CC(N/N=C(\S)N1CCCCCC1)c1nccc2ccccc12 (stereo not given) |  |  | 7.1 | 2 | 5.1 | 3 |  |  |  |  | 2
CC(N/N=C(\S)N1CCC(c2ccccc2)CC1)c1nccc2ccccc12 (stereo not given) |  |  | 1 | 4 | 1.6 | 2 |  | 1 |  |  | 
